Test results as given in publication PMC8044163, “Vitamin D and lumisterol derivatives can act on liver X receptors (LXRs)” (Scientific Reports, 2021).
Like-named read-outs stand apart in the source and are kept apart here.

Experiments:
LBD of LXRα = target: T1, LBD of LXRα (Homo sapiens, UniProt Q13133); experiment: LanthaScreen TR-FRET LXRα coactivator assay (LXR binding assay); assay type: biochemical
T1 construct: after addition of LXRα/β-LBD to the derivatives; purchased Thermo Fisher Scientific
T1 sequence (Q13133 209-447 limits assumed): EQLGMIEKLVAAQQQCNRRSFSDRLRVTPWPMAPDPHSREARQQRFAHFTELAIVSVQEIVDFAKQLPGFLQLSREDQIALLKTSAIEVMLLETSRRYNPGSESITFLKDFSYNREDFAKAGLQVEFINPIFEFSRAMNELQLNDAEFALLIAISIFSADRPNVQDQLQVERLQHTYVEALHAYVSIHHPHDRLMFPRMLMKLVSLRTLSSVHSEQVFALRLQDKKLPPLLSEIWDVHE
Description: (§1) Binding assays of graded concentrations of vitamin D3 or lumisterol hydroxyderivatives to LXRα/β were performed using the LanthaScreen TR-FRET LXRα/β Coactivator kit (Thermo Fisher Scientific, Inc., Waltham, MA) following the manufacture’s protocol. Briefly, after addition of LXRα/β-LBD to the derivatives, a mixture of peptide (Fluorescein-TRAP220/DRIP-2 for LXRα or Fluorescein-D22 for LXRβ) and antibody (Tb-anti-GST) was added to the reaction followed by incubation in room temperature for 2 h. TR-FRET ratio was calculated by dividing the emission at 520 nm by the emission at 495 nm using Synergy neo2 (BioTek, Winooski, VT).

LBD of LXRβ = target: T2, LBD of LXRβ (Homo sapiens, UniProt P55055); experiment: LanthaScreen TR-FRET LXRβ coactivator assay (LXR binding assay); assay type: biochemical
T2 construct: purchased Thermo Fisher Scientific
T2 sequence (P55055 222-460 limits assumed): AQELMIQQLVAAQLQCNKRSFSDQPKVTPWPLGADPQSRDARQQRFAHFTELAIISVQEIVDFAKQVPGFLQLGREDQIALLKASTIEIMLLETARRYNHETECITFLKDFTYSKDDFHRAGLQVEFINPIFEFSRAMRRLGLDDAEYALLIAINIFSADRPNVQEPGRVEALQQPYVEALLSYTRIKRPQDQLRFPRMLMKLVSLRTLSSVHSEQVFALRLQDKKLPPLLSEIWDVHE
Description: as §1

[1] = agonist, average values, read-out: LXRα EC50
[2] = agonist, average values, read-out: LXRβ EC50

| EC50 (LBD of LXRα; [1]) | EC50 (LBD of LXRβ; [2]) | SMILES | EC50 (LBD of LXRα) | EC50 (LBD of LXRβ) |
| --- | --- | --- | --- | --- |
| 640 nM | 14000 nM | CC(C)CCC(O)[C@@H](C)[C@H]1CC[C@H]2C3=CC=C4C[C@@H](O)CC[C@@]4(C)[C@@H]3CC[C@]12C (some centres unmarked) [22(OH)L3] | – | – |
| 3600 nM | 1300 nM | CC(CC[C@H](O)C(C)C)[C@H]1CC[C@H]2C3=CC=C4C[C@@H](O)CCC4(C)[C@@H]3CC[C@]12C (some centres unmarked) [24(OH)L3] | – | – |
| 140 nM | 1900 nM | CC(CCCC(C)(C)O)[C@H]1CC[C@H]2C3=CC=C4C[C@@H](O)CC[C@@]4(C)[C@@H]3CC[C@]12C (some centres unmarked) [25(OH)L3] | – | – |
| 820 nM | 550 nM | C[C@@H](CO)CCC[C@@H](C)[C@H]1CC[C@H]2C3=CC=C4C[C@@H](O)CC[C@@]4(C)[C@@H]3CC[C@]12C [(25R)-27(OH)L3] | – | – |
| 26 nM | 1.3 nM | C[C@H](CO)CCC[C@@H](C)[C@H]1CC[C@H]2C3=CC=C4C[C@@H](O)CC[C@@]4(C)[C@@H]3CC[C@]12C [(25S)-27(OH)L3] | – | – |
| – | – | C=C1CC[C@H](O)C/C1=C/C=C1\CCC[C@]2(C)[C@@H]([C@H](C)CCCC(C)C)CC[C@@H]12 [D3, Vitamin D3, reference compound] | 760 nM | 890 nM |
| 250 nM | 110 nM | CC(C)CCC[C@@H](C)[C@H]1CC[C@H]2C3=CC=C4C[C@@H](O)CC[C@@]4(C)[C@@H]3CC[C@]12C [L3, lumisterol] | – | – |
